In test [1] the target is 5-hydroxytryptamine receptor 2A (Homo sapiens, UniProt P28223). It is filed as functional, cell-based.
For test [2], the target named is Neuronal acetylcholine receptor subunit alpha-4 (Homo sapiens, UniProt P43681).
For the next test, the target named is T1, Adenosine receptor A1 (Homo sapiens, UniProt P30542).
T1 sequence (P30542 whole entry): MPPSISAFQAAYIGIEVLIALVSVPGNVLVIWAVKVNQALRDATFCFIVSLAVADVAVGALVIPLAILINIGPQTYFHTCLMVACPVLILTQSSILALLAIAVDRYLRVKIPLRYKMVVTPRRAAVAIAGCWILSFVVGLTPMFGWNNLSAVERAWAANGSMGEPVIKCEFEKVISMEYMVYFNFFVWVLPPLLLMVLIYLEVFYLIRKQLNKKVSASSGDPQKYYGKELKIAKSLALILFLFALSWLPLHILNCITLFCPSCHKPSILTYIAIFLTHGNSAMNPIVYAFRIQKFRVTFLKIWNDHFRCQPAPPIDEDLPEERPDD

Test [3] has as its target Sodium-dependent dopamine transporter (Homo sapiens, UniProt Q01959).
Test [4] has as its target T2, Alpha-1A adrenergic receptor (Homo sapiens, UniProt P35348).
T2 sequence (P35348 whole entry): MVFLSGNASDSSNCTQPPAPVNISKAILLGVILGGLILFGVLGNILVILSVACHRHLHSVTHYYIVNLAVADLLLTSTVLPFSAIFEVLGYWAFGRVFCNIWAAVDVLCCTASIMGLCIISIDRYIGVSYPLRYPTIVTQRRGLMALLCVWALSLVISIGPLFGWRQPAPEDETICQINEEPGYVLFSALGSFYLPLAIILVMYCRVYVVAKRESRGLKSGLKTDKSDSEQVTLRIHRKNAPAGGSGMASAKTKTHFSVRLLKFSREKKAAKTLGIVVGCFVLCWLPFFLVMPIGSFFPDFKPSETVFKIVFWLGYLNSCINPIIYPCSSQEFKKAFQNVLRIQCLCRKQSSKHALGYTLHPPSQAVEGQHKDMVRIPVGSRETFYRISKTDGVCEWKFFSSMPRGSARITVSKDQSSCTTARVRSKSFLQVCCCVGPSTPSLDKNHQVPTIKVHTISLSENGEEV
In kind it is functional, cell-based.

The target of test [5] is T3, Prostaglandin G/H synthase 1 (Rattus norvegicus, UniProt Q63921).
T3 sequence (Q63921 whole entry): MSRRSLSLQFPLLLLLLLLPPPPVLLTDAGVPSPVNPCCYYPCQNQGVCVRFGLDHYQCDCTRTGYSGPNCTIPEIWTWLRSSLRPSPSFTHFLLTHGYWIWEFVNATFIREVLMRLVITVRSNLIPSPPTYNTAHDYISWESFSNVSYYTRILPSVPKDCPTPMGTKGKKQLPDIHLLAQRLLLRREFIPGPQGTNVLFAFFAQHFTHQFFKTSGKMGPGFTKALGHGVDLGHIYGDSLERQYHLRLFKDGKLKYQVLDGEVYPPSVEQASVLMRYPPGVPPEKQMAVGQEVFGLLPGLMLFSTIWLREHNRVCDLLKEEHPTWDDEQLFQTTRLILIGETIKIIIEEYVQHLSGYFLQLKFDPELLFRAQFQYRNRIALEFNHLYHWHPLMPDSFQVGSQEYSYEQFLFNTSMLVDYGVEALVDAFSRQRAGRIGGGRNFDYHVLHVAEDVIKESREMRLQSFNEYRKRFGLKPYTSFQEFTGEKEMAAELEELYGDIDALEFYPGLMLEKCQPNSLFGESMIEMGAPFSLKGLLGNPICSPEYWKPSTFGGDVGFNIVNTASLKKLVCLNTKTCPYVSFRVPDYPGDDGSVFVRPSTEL
In kind it is functional.

Test [6] deals with Delta-type opioid receptor (Homo sapiens, UniProt P41143).
In test [7] the target is 5-hydroxytryptamine receptor 2B (Homo sapiens, UniProt P41595). It is filed as functional, cell-based.
Another test has as its target Histamine H2 receptor (Homo sapiens, UniProt P25021). It is filed as functional, cell-based.
Test [8] addresses Gamma-aminobutyric acid receptor subunit alpha-1 (Rattus norvegicus, UniProt P62813).
Test [9] addresses T4, 5-hydroxytryptamine receptor 2C (Homo sapiens, UniProt P28335).
T4 sequence (P28335 whole entry): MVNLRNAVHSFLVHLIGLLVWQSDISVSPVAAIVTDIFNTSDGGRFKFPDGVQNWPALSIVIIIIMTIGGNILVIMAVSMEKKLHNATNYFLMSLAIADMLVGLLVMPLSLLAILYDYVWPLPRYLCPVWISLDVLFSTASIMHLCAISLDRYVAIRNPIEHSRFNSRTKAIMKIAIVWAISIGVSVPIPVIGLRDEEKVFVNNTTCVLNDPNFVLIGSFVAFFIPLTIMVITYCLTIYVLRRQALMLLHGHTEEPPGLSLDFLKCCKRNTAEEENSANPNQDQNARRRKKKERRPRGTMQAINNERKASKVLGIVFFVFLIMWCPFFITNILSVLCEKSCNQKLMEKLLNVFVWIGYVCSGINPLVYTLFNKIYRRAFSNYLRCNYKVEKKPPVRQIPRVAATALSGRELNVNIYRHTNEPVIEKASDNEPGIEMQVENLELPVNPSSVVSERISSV

A further test addresses Cannabinoid receptor 1 (Homo sapiens, UniProt P21554). It is filed as functional, cell-based.
The target of test [10] is T5, 5-hydroxytryptamine receptor 1A (Homo sapiens, UniProt P08908).
T5 sequence (P08908 whole entry): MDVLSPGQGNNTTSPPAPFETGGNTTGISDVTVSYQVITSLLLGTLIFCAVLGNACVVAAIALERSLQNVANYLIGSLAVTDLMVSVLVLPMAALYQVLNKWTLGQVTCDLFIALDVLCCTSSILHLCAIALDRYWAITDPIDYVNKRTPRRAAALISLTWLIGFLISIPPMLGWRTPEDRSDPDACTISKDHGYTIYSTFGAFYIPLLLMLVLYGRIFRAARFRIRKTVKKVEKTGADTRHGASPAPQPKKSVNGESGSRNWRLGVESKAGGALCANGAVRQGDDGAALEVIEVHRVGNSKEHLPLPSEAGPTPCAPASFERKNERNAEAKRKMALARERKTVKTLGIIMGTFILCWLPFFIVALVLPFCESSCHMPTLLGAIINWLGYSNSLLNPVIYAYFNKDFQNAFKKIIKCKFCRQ
In kind it is functional, cell-based.

In the next test the target is D(3) dopamine receptor (Homo sapiens, UniProt P35462).
The next test addresses Adenosine receptor A2a (Homo sapiens, UniProt P29274).
Further: assay procedure not described here.

Adenosine receptor A2a, sequence (P29274 whole entry): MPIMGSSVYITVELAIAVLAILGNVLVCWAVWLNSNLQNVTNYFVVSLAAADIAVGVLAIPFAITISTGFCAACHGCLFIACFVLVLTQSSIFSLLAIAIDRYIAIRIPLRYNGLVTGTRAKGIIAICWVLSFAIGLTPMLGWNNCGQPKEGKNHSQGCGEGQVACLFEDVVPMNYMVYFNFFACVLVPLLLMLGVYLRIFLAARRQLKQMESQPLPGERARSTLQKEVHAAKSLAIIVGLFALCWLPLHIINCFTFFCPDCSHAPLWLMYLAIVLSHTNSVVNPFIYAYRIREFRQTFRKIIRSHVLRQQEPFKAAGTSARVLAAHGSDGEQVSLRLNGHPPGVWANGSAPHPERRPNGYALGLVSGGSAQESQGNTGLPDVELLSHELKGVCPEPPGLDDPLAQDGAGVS
Cannabinoid receptor 1, sequence (P21554 whole entry): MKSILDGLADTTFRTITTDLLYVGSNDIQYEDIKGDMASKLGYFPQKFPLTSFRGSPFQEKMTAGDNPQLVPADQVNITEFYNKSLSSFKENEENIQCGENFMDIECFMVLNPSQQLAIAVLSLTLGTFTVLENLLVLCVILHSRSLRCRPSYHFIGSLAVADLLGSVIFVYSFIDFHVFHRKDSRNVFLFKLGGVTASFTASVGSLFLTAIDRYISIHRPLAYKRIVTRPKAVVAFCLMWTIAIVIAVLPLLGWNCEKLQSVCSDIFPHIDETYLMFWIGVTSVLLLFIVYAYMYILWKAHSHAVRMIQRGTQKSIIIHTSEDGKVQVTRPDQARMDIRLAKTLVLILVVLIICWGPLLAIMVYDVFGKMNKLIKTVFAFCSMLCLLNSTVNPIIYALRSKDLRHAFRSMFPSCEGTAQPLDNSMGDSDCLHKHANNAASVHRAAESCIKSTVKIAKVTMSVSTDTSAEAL
Delta-type opioid receptor, sequence (P41143 whole entry): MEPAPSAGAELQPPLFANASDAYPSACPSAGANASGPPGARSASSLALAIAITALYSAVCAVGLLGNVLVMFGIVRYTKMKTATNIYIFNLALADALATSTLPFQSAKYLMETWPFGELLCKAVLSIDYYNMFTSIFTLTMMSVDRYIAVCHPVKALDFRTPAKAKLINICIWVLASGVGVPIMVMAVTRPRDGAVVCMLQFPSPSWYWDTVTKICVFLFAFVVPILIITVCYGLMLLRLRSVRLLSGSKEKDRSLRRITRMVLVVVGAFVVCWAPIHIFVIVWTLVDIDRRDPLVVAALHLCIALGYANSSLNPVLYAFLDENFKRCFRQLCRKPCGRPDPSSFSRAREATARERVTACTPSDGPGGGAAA
5-hydroxytryptamine receptor 2A, sequence (P28223 whole entry): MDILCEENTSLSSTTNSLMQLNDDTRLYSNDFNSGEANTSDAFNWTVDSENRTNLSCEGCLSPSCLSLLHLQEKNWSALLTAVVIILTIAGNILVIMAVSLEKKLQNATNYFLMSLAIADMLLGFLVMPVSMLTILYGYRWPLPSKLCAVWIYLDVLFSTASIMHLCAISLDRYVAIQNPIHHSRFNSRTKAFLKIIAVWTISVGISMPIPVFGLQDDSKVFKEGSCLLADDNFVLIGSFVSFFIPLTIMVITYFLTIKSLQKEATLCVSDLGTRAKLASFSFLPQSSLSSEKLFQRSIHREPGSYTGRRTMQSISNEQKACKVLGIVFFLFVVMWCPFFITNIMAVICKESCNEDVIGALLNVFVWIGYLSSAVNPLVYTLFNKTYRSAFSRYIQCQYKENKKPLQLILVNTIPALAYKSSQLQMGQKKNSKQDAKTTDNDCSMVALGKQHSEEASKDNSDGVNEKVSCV
D(3) dopamine receptor, sequence (P35462 whole entry): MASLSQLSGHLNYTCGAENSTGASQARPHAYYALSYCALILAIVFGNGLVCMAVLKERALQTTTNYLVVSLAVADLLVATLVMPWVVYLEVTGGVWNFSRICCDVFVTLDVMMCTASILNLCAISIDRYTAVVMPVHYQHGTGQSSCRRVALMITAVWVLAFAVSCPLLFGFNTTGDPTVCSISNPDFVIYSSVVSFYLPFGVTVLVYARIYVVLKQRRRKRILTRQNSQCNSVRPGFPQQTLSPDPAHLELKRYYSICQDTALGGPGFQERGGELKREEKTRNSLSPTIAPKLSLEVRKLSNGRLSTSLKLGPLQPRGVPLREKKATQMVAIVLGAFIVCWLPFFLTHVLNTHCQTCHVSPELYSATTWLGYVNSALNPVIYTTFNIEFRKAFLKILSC
Sodium-dependent dopamine transporter, sequence (Q01959 whole entry): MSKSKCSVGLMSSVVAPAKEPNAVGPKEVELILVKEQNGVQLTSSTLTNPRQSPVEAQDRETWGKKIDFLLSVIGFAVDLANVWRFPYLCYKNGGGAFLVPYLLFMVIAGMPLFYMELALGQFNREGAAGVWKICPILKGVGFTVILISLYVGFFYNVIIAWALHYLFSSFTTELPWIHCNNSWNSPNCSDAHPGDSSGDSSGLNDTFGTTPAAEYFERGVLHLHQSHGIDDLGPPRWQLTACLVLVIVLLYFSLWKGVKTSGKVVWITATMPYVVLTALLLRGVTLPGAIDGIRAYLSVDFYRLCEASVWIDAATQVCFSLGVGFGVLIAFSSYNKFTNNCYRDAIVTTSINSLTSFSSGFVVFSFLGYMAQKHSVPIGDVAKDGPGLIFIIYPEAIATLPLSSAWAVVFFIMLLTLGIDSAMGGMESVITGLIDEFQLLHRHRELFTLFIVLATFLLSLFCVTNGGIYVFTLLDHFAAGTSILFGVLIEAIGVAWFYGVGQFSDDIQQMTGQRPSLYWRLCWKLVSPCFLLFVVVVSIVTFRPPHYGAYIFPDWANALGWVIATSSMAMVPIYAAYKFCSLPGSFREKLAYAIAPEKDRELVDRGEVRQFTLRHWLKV
Histamine H2 receptor, sequence (P25021 whole entry): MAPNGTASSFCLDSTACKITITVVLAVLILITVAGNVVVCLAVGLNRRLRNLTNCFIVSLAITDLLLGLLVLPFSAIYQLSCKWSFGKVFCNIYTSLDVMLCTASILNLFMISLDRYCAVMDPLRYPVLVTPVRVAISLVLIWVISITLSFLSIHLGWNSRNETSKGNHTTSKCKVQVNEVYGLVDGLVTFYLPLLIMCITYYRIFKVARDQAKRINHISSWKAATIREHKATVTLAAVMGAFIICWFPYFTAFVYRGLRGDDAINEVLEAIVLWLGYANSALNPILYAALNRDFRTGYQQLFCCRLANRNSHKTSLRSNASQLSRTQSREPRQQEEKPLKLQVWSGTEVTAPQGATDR
Neuronal acetylcholine receptor subunit alpha-4, sequence (P43681 whole entry): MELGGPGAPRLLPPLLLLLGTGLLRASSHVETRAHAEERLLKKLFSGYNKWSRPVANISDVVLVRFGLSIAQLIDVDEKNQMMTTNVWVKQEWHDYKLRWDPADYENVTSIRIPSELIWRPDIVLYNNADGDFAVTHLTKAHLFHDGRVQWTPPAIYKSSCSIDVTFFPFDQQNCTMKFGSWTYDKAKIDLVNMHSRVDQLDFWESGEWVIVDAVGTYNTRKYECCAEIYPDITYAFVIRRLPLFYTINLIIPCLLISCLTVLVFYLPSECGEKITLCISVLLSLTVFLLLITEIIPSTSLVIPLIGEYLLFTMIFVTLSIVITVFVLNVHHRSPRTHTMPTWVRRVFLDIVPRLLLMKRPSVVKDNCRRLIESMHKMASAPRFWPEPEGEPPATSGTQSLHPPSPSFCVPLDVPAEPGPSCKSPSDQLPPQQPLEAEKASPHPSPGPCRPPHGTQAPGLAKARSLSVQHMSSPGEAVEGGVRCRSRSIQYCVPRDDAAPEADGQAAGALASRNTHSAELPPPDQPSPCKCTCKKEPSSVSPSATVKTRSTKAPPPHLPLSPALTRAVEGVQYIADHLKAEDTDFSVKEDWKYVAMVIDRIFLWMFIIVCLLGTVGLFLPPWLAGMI
Gamma-aminobutyric acid receptor subunit alpha-1, sequence (P62813 whole entry): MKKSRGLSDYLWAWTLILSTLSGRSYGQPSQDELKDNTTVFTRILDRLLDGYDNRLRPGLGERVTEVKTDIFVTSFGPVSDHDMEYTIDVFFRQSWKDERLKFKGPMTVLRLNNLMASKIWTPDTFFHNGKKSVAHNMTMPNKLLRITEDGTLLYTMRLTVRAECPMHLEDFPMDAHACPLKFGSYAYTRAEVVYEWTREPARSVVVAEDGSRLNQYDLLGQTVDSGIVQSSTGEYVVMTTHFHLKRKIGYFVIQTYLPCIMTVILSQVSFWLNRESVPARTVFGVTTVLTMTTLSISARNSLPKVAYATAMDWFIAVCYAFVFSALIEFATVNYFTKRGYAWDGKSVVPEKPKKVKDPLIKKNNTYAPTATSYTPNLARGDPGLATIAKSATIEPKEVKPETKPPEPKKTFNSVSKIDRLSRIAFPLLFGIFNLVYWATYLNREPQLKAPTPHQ
5-hydroxytryptamine receptor 2B, sequence (P41595 whole entry): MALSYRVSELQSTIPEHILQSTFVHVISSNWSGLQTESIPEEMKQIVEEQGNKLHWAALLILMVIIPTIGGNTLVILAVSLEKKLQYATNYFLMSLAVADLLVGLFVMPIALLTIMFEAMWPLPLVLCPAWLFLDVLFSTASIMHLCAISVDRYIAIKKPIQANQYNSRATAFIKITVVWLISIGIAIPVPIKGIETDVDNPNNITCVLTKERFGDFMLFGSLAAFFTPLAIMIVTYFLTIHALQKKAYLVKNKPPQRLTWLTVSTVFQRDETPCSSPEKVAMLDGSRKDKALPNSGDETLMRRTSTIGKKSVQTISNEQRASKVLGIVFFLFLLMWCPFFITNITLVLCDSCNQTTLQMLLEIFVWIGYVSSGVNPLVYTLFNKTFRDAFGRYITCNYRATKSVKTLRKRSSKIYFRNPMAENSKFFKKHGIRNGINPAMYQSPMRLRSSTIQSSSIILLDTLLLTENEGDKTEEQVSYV

Broadly, the AC50 is the midpoint of the concentration-response curve, whichever way the signal moves. With `CCn1c(=O)c2c(nc(/C=C/c3ccc(OC)c(OC)c3)n2C)n(CC)c1=O` [ISTRADEFYLLINE], the AC50 was over 30 µM in test [1]; over 30 µM in test [2]; 23 µM on Adenosine receptor A1; over 30 µM in test [3]; over 30 µM in test [4]; over 30 µM in [5].
As for `Cc1ccc(O)c([C@H](CCN(C(C)C)C(C)C)c2ccccc2)c1` [TOLTERODINE], the AC50 is over 10 µM in test [6]; over 10 µM in test [7]; over 10 µM in test [2]; over 10 µM on Histamine H2 receptor; over 10 µM in test [3]; over 30 µM in [4]. For the same compound, the AC50 is over 30 µM in [8]; over 30 µM in [9]; over 30 µM on Cannabinoid receptor 1; over 10 µM in test [10]; over 10 µM at D(3) dopamine receptor.
For the compound `CN1C(C(=O)Nc2ccccn2)=C(OC(=O)/C=C/c2ccccc2)c2ccccc2S1(=O)=O` [PIROXICAM CINNAMATE], in [5], the AC50 is over 300 µM.
For `C[C@]12C=CC(=O)C=C1CC[C@@H]1[C@@H]2[C@@H](O)C[C@@]2(C)[C@H]1CC[C@]2(O)C(=O)CO` [PREDNISOLONE], the AC50 was over 30 µM in test [6]; over 10 µM in test [7]; over 10 µM in test [2]; over 10 µM at Histamine H2 receptor; over 30 µM at Adenosine receptor A1; over 30 µM in test [3]. In addition, the AC50 in test [4] was over 30 µM; in [8], over 10 µM; in [9], over 30 µM; at Cannabinoid receptor 1, over 30 µM; on Adenosine receptor A2a, over 30 µM; in test [10], over 10 µM. The concentration at half-maximal activity (AC50) (on D(3) dopamine receptor; in test [5]) was over 30 µM each time.
For the compound `CC1(C)O[C@@H]2C[C@H]3[C@@H]4CCC5=CC(=O)C=C[C@]5(C)[C@@]4(F)[C@@H](O)C[C@]3(C)[C@]2(C(=O)CO)O1` [TRIAMCINOLONE ACETONIDE], the AC50 (in test [6]; in test [7]; in test [2]; at Histamine H2 receptor; at Adenosine receptor A1; in [3]) was over 30 µM throughout. Further, the AC50 (in test [8]; in [9]; on Cannabinoid receptor 1; at Adenosine receptor A2a; in test [10]; at D(3) dopamine receptor) was over 30 µM each time. For the same compound, in test [5], the half-maximal activity concentration (AC50) is over 30 µM.
Turning to `C[C@]12CCC(=O)C=C1[C@@H]1C[C@@H]1[C@H]1[C@@H]3[C@@H]4C[C@@H]4[C@@]4(CCC(=O)O4)[C@@]3(C)CC[C@@H]12` [DROSPIRENONE], the AC50 is over 30 µM in test [6]; 24 µM in test [1]; 26 µM in [7]; over 30 µM in test [2]; over 30 µM at Histamine H2 receptor; over 30 µM on Adenosine receptor A1. The AC50 (in test [3]; in [4]; in test [8]; in test [9]; at Adenosine receptor A2a; in test [10]) was over 30 µM in each case. Moreover, the AC50 (at D(3) dopamine receptor; in test [5]) was over 30 µM each time.
As to `N=C(N)NC(=O)c1nc(Cl)c(N)nc1N` [AMILORIDE], the AC50 (in test [6]; in test [7]; in [2]; at Histamine H2 receptor; at Adenosine receptor A1; in test [3]) was over 30 µM in each case. In addition, the AC50 (in test [4]; in test [8]; in [9]; on Adenosine receptor A2a; in test [10]; at D(3) dopamine receptor) was over 30 µM throughout. In [5], this compound registered an AC50 of over 30 µM.
Regarding `COc1cccc2c1C(=O)c1c(O)c3c(c(O)c1C2=O)C[C@@](O)(C(=O)CO)C[C@@H]3O[C@H]1C[C@H](N)[C@H](O)[C@H](C)O1` [DOXORUBICIN], the AC50 in test [6] was over 30 µM; in test [7], over 10 µM; in [2] it was over 30 µM; on Histamine H2 receptor, over 10 µM; at Adenosine receptor A1, over 30 µM; in test [3] it was over 30 µM. Besides, the AC50 was 16 µM in test [4]; over 10 µM in test [8]; over 30 µM in test [9]; over 30 µM on Cannabinoid receptor 1; over 30 µM on Adenosine receptor A2a; over 30 µM in test [10]. Moreover, the AC50 (at D(3) dopamine receptor; in [5]) was over 30 µM throughout.
Take `CCC(=O)c1ccc2c(c1)N(CC(C)N(C)C)c1ccccc1S2` (stereo not given) [PROPIOMAZINE]: the AC50 in test [6] was over 30 µM; in [1], 1 µM; in test [7] it was over 10 µM; in [2] it was over 10 µM; at Histamine H2 receptor it was over 10 µM; at Adenosine receptor A1, over 10 µM. The AC50 is over 10 µM in test [3]; over 10 µM in [8]; 0.18 µM in test [9]; over 10 µM at Adenosine receptor A2a; over 30 µM in test [10]; 0.53 µM at D(3) dopamine receptor. In [5], this compound came in with an AC50 of over 10 µM.
On to `Cc1cn(-c2cc(NC(=O)c3ccc(C)c(Nc4nccc(-c5cnccn5)n4)c3)cc(C(F)(F)F)c2)cn1` [RADOTINIB], for which the AC50 in test [1] is over 30 µM; in test [2] it was 27 µM; in test [3], over 30 µM; in test [4], over 30 µM; at Adenosine receptor A2a, over 30 µM; in test [5], over 30 µM.

The record behind these values is ChEMBL document CHEMBL5291721, “A preclinical secondary pharmacology resource illuminates target-adverse drug reaction associations of marketed drugs” (Nat Commun, 2023).
